Measurements from patent US20250188410A1, “NICOTINAMIDE ADENINE DINUCLEOTIDE (NAD+) PRECURSORS, NAD PATHWAY SUBSTRATES COMPOSITIONS AND USES THEREOF” (Colossal Biosciences Inc., priority 2023, published 2025).
Values joined by “and” are separate entries in the source; they are usually repeats but may differ in a detail not shown here. Equal values may be shown once.

Experiments:
[1] = system: bovine embryos; test: Presumptive bESC colonies at day 25 by Alkaline Phosphatase staining (bESC derivation); format: cell-based; conditions: for number of presumptive bESC colonies (increase): IVF and PA groups, supplementation during the first seven days; for number of presumptive bESC colonies (increase) / # colonies per cm^2 / Average (# colonies per cm^2) / Fold vs Control (presumptive bESC colonies): day 25; for # colonies per cm^2 / Average (# colonies per cm^2) / Fold vs Control (presumptive bESC colonies) / Number of AP+ Colonies: IVF; for Number of AP+ Colonies: day 25, 12 well plate
Experimental: (§1) After identifying the NAD^+ precursor dosage, experiment 2 was performed. Embryos were cultured in in vitro culture medium (BO-IVC; IVF Biosciences) supplemented with NA or NMN for 7-14 days in air controlled atmosphere (5% CO2 and 5% O2) at 38.5° C. Embryos cultured with NAD^+ precursor were collected at the blastocyst stage (D7) and plated in co-culture with irradiated mouse embryonic fibroblast (MEF) and bovine ESCs medium ([…]) until day 25 for bovine ESCs Derivation: Timeline bESC Derivation: • D0-D7 Incubation of IVF-produced embryos in IVC supplemented with NAD^+ precursor for seven days. • D7 Plating of embryos for ESC derivation on medium […] on Cf1 MEF. Treatment with Y27632 for last 12 hours of culturing. • D14 Mechanically isolate the ICM and transfer to a new plate. […] NMN and Nicotinic Acid (NA, also known as Niacin) were used as the NAD^+ precursors in this experiment. On day 7 of supplementation, blastocysts were collected and plated on MEFs in a […] medium.

[2] = system: bovine embryos; test: as above; format: cell-based; conditions: PA, replicate 1, 5 seed embryos; for # colonies per cm^2 / Average (# colonies per cm^2) / Fold vs Control (presumptive bESC colonies): day 25; for Number of AP+ Colonies: day 25, 12 well plate
[3] = system: bovine embryos; test: Attachment rate of embryos at day 11 of culture on MEFs in bEPSCM (Experiment 2); format: cell-based
[4] = system: bovine embryos; test: Measurement of ICM and outgrowths for day 14 embryos before ICM isolation; format: cell-based; conditions: PA embryos
[5] = system: bovine embryos; test: as above; format: cell-based; conditions: IVF embryos
Experimental: as §1

[6] = system: bovine embryos; test: Early embryo development of bovine embryos in IVC medium supplemented with NAD+ precursor (Experiment 1); format: cell-based
Experimental: The NAD^+ precursors […] (NMN) or Nicotinic acid […] (NA) (SG; Sigma N7764) were supplemented into in vitro culture medium (BO-IVC; IVF Biosciences), and bovine embryos obtained by in vitro fertilization (IVF) or parthenogenetic activation (PA) were cultured for 7-14 days in air controlled atmosphere (5% CO2 and 5% O2) at 38.5° C. Embryo development was evaluated at day 3 (D3-cleavage rate), day 7 (D7−Blastocyst rate), and day 11 (D11−Hatching rate). In addition, the expansion of hatched blastocysts from day 11-13 was evaluated. Based on this testing (see in Experiment 1 below) suitable dosages of NAD^+ precursors were identified.
Different doses of NMN (125 to 1000 μM) were added to the IVC culture medium containing bovine embryos for up to 14 days. No effect of NAD^+ precursor presence was observed on the cleavage or blastocyst rates for all three replicates (see FIG. 1, FIG. 2A, FIG. 2B, and FIG. 3).

[7] = IVM or embryo culture media supplemented with NMN; cited from earlier work

Row | Compound | number of presumptive bESC colonies (increase) [1] | # colonies per cm^2 ([1]; replicate 1, 1 seed embryo) | Average (# colonies per cm^2) ([1]; replicate 1, 1 seed embryo) | Fold vs Control (presumptive bESC colonies) ([1]; replicate 1, 1 seed embryo) | Number of AP+ Colonies ([1]; replicate 1, 1 seed embryo) | # colonies per cm^2 ([1]; replicate 2, 5 seed embryos) | Average (# colonies per cm^2) ([1]; replicate 2, 5 seed embryos) | Fold vs Control (presumptive bESC colonies) ([1]; replicate 2, 5 seed embryos) | Number of AP+ Colonies ([1]; replicate 2, 5 seed embryos) | # colonies per cm^2 [2] | Average (# colonies per cm^2) [2] | Fold vs Control (presumptive bESC colonies) [2] | Number of AP+ Colonies [2] | % Attached ([3]; IVF embryos) [%] | Fold vs Control (attachment rate) ([3]; IVF embryos) | % Attached ([3]; PA embryos) [%] | Fold vs Control (attachment rate) ([3]; PA embryos) | AVG Fold (ICM/outgrowth) [4] | AVG ICM [4] [μm] | AVG Outgrowth [4] [μm] | also measured
1 | O=C(O)c1cccnc1 [NA, nicotinic acid (pyridine-3-carboxylic acid), reference compound] | increased by three times | 82 and 72.29 and 8 | 54.1 | 2.958 | 287 and 253 and 28 | 33.43 | 33.43 | 3.25 | 117 | 15.14 | 15.14 | 2.944 | 53 | 100 | 1.33 | 60 | 3 | 0.1303 | 48.9 | 436.7 | AVG Fold (ICM/outgrowth) [5]: 0.09417; AVG ICM [5]: 76.27 μm; AVG Outgrowth [5]: 905.9 μm
2 | NC(=O)c1ccc[n+]([C@@H]2O[C@H](COP(=O)([O-])O)[C@@H](O)[C@H]2O)c1 [NMN, nicotinamide mononucleotide] | increased by three times | 11.14 and 16.29 and 10.86 | 12.76 | 0.6979 | 39 and 57 and 38 | 16.29 | 16.29 | 1.583 | 57 | 12 | 12 | 2.333 | 42 | 100 | 1.33 | 60 | 3 | 0.1845 | 47.2 | 458.5 | cleavage rate ([6]; NMN 125 to 1000 μM in IVC culture medium, day 3, three replicates): No effect; blastocyst rate ([6]; NMN 125 to 1000 μM in IVC culture medium, day 7, three replicates): No effect; morphology of hatched blastocysts ([6]; supplementation in IVC, day 11 to day 13): beneficially impact; AVG Fold (ICM/outgrowth) [5]: 0.1124; AVG ICM [5]: 58.38 μm; AVG Outgrowth [5]: 645.2 μm; maturation or embryo development [7]: no effect
